Assay [1] concerns the target T1, c-Src (Homo sapiens, UniProt P12931). The experiment in a line: Intact protein mass by HPLC/MS, covalent binding. Conditions: about 20 μM c-Src, 100 μM compound, 4° C., 8 hours; expected 316.34 Da for a single covalent adduct. On the procedure:
c-Src protein was diluted to approximately 20 μM in final buffer and incubated with compound at a final concentration of 100 μM or same volume of DMSO at 4° C. for 8 hours. Then, the protein samples were diluted into aqueous solution containing 0.1% formic acid (about 1 mg/mL), and 2 μg of the target protein samples were took for LC/MS analysis. Intact protein high-resolution mass spectrometry was performed using Ultimate 3000 LC liquid chromatograph and LTQ Orbitrap mass spectrometer equipped with HESI ion source (Thermo Fisher, CA). BioPharma Finder software (version 2.0, Thermal Fischer, California) was used to process the raw LC-MS data, and the […] deconvolution algorithm was used to obtain the intact protein masses.

Assay [2] concerns the target c-Src Y419 autophosphorylation (His-tag Src-k protein) (Homo sapiens, UniProt P12931). The assay is described as follows: Amplified Luminescent Proximity Homogeneous Assay (ALPHA), auto-phosphorylation of c-Src Y419. Type of assay: biochemical. The settings on record: 90 min incubation, n=3, read-out: IC50, inhibition of autophosphorylation of c-Src Y419. As to the method:
Human c-Src kinase domain (Src-k, including WT and C280S, 254-536) with a TEV protease cleavable N-terminal 6×-His tag was cloned into pET28a vector and co-expressed with full length YopH phosphatase cloned to pCDFDuet-1 vector in Escherichia coli BL21 (DE3) cells. Cells were cultured in LB medium at 37° C. and induced with 0.4 mM IPTG at 18° C. for 16 hours. Proteins were purified using HisTrap FF column (GE Healthcare) in buffer containing 50 mM Hepes pH=8.0, 500 mM NaCl, 5% glycerol and imidazole (25 mM for loading, 150 mM for elution). After TEV enzyme cleavage, proteins were loaded to Hitrap Q FF (GE Healthcare) in buffer containing 20 mM Hepes pH=8.0, 5% glycerol, 1 mM DTT (QA) and eluted with a linear gradient of 10-30% buffer QB (buffer QA plus 1M NaCl). Then proteins were further purified by Superdex75™ 10/300 GL column (GE Healthcare) and change the buffer to 20 mM Hepes pH=7.4, 150 mM NaCl, 1 mM DTT. The ability of compounds to inhibit the auto-phosphorylation of c-Src Y419 was determined by Amplified Luminescent Proximity Homogeneous Assay (ALPHA). ALPHA assay was carried out in assay buffer containing 20 mM Hepes, pH=7.4, 0.1% Triton X-100, 1 mM DTT, 0.1% bovine serum albumin (w/v)). […] Finally, the signals were measured in ALPHA protocol using EnVision reader and the IC50 values analyzed in Graphpad Prism 8.0.

The target of a further assay is c-Src (Src-k protein) (Homo sapiens, UniProt P12931). The assay is described as follows: Protein thermal shift (PTS) assay. The assay is classed as binding. On the procedure: Human c-Src kinase domain (Src-k, including WT and C280S, 254-536) with a TEV protease cleavable N-terminal 6×-His tag was cloned into pET28a vector and co-expressed with full length YopH phosphatase cloned to pCDFDuet-1 vector in Escherichia coli BL21 (DE3) cells. Cells were cultured in LB medium at 37° C. and induced with 0.4 mM IPTG at 18° C. for 16 hours. Proteins were purified using HisTrap FF column (GE Healthcare) in buffer containing 50 mM Hepes pH=8.0, 500 mM NaCl, 5% glycerol and imidazole (25 mM for loading, 150 mM for elution). After TEV enzyme cleavage, proteins were loaded to Hitrap Q FF (GE Healthcare) in buffer containing 20 mM Hepes pH=8.0, 5% glycerol, 1 mM DTT (QA) and eluted with a linear gradient of 10-30% buffer QB (buffer QA plus 1M NaCl). Then proteins were further purified by Superdex75TM 10/300 GL column (GE Healthcare) and change the buffer to 20 mM Hepes pH=7.4, 150 mM NaCl, 1 mM DTT. Protein thermal shift (PTS) assays were performed on a QuantStudioTM 6 Flex Real-time PCR system (Applied Biosystems). […] Src-k protein, 5×SYPRO® orange (Molecular Probes) and different concentrations of compounds were mixed in 20 μL final buffer and added to 96-well plates (DN Biotech). According to the standard protocol, the reaction system was heated from 25° C. to 95° C. within 25 minutes, and the fluorescence signal was monitored in real time. Protein […] ShiftTM Software Version 1.2 (Life Technologies) was used to determine the Tm value and Graphpad Prism 8.0 was used to draw the curves. The Y419-phosphorylated protein used was obtained by incubating Src-k protein with 5 mM MgCl2 and 10 mM ATP overnight, and then desalting it into final buffer.

The target of assay [3] is T1, c-Src. The experiment in a line: Homogeneous time-resolved fluorescence (HTRF) assay, KinEASE-TK kit. Type of assay: biochemical. The settings on record: 120 min incubation, n=3 for DC-Srci-6668, read-out: IC50, inhibition of c-Src catalytic activity. On the procedure:
Based on this, covalent docking was performed against an in-house compound library, consisting of 720 compounds with reactive chemical groups. After score ranking and cluster analysis (FIG. 6B), 16 compounds were selected and purchased from ChemDiv (San Diego, CA, USA) for subsequent biochemical evaluations. Although IC50 values are time-dependent for covalent inhibitor and cannot be used to fully characterize the true binding affinity, they are also recognized as an indicator for preliminary evaluating the biological activity of covalent compounds. The homogeneous time resolved fluorescence (HTRF) assay was then conducted to determine the compound inhibitory activity, using the HTRF KinEASE-TK kit (Cisbio, Bedford, MA, USA). […] The cells were infected with baculovirus at 27° C. for 48-72 hours before collection. Cells were lysed in buffer containing 20 mM Hepes pH=7.4, 150 mM NaCl, 1 mM DTT, 1× protease inhibitor cocktail (Roche) and 1 mM PMSF. […] The ability of compounds to inhibit the phosphorylation of a peptide substrate by c-Src kinase was evaluated by homogeneous time-resolved fluorescence (HTRF) using KinEASE-TK kit (Cisbio, Bedford, MA, USA). […] Finally, fluorescence was measured at 615 nm and 665 nm using EnVision reader (PerkinElmer). The results were calculated as follows: ratio=OD665/OD615 and the IC50 values were analyzed in Graphpad Prism 8.0.
On the technique in general: TR-FRET usually uses a lanthanide donor and a delayed reading to cut background.

Chain of c-Src (Src-k protein) (P12931 254-536): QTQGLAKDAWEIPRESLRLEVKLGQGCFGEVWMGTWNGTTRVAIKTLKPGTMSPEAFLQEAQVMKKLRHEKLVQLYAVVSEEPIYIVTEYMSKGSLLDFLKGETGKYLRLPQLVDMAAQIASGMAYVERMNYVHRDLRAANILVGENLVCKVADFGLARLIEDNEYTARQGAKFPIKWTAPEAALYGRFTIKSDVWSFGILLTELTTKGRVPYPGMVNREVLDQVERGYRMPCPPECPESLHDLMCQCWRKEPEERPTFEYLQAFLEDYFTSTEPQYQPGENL
T1 sequence (P12931 86-536): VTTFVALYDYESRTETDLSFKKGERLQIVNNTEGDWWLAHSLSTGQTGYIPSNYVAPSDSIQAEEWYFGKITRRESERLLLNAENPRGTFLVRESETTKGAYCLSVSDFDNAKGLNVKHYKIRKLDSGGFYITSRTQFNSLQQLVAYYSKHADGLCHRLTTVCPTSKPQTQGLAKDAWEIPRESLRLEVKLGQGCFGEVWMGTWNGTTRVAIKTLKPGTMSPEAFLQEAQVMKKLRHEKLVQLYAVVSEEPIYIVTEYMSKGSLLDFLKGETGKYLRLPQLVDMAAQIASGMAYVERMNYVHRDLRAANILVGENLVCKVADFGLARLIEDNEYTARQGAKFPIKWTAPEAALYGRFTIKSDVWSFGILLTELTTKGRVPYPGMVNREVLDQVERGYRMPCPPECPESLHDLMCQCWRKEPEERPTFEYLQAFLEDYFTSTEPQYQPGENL
Chain of c-Src Y419 autophosphorylation (His-tag Src-k protein) (P12931 254-536): as the sequence (P12931 254-536) above

For orientation: IC50 means the concentration that gives 50% inhibition. Consider `O=C(NC1CCCC1)C(c1ccc(F)cc1)N(C(=O)CCl)C1CC1` (stereo not drawn) [DC-Srci-6668], for which, at c-Src [1], the “increase of MW of c-Src after compound treatment” value is 316.64 Da. The IC50 was 3.88 ± 0.586 µM in assay [2] and 2.39 ± 0.164 µM on c-Src [3]. In addition, the “positive Tm shift of c-Src” value on c-Src (Src-k protein) (concentration ratio 1:5) was 1.50 °C; on c-Src (Src-k protein) (concentration ratio 1:10), 2.56 °C; at c-Src (Src-k protein) (concentration ratio 1:20) it was 3.30 °C.

The values above are taken from patent publication US20250125004A1, “SYSTEMS AND METHODS FOR POST-TRANSLATIONAL MODIFICATION-INSPIRED DRUG DESIGN AND SCREENING” (Ensem Therapeutics, Inc., priority 2021, published 2025).
